Test results reported in patent US20240374626A1, “METHODS OF ENHANCING MILK PRODUCTION IN LACTATING MAMMALIAN SUBJECTS” (priority 2023, published 2024).

Experiments:
Format in all cases: cell-based, mouse
[1] = test system: HC11 cells; experiment: Milk production markers in differentiated HC11 (milk domes, Csn2 RT-qPCR, CSN2 WB, PLIN2 ICC)
Experimental: (§1) The HC11 cell line was obtained from American Type Culture Collection (ATCC) and routinely checked for mycoplasma (Mycoplasma PCR kit, ABM, G238). Undifferentiated HC11 cells were cultured in growing medium (RPMI-1640; Thermo Fisher Scientific, 72400047), supplemented with 10% FBS, 5 μg/ml insulin (Millipore-Sigma, 16634), 10 ng/ml epidermal growth factor (EGF; Preprotech, AF-100-15) and 1× AntiAnti (Thermo Fisher Scientific, 15240112) at 37° C. with 5% CO2. Cells were grown to confluency and maintained in growing medium for 2 days, until they became competent. Competent HC11 cells were primed for differentiation by culturing them in priming medium [RPMI-1640 supplemented with 5 μg/ml insulin, 1 μM dexamethasone (Millipore-Sigma, D4902-1 G) and 1× Anti-Anti] for 24 h at 37° C. with 5% CO2. To induce differentiation, primed HC11 cells were cultured in DIP Medium [RPMI-1640, supplemented with 10% FBS, 5 μg/ml insulin, 1 μM dexamethasone, 1× anti-anti and 3 μg/ml Prolactin (NHPP, oPRL-21)] at 37° C. with 5% CO2.
(§2) […] Drugs were maintained through the differentiation process and added with every change of media.
Whole cell lysates were prepared using 1×NP40 lysis buffer (Thermo Fisher Scientific, FNN0021) supplemented with Pierce Protease and Phosphatase inhibitors (Thermo Fisher Scientific, A32959). Cells were washed with ice-cold PBS (GIBCO, 14190136) and lysed direct in buffer and kept at 4° C. rocking at 70 rpm for 30 min. Lysed cells were collected and centrifuged at 12,000 rpm at 4° C. for 15 min. Protein concentration was quantified using Qubit 4 fluorometer (Thermo Fisher, Q33238). Samples were resolved by SDS page and transferred to polyvinylidene difluoride (PVDF, Millipore-Sigma, IPVH00010) for 60 min at 250 mA. Immunoblots were blocked for 1 h at room temperature using either 5% non-fat milk or 5% BSA TBST. Primary antibodies [anti-GAPDH (SCBT, sc-365062), anti-Actin (SCBT, sc-47778), anti-Cyclin B1 (SCBT, sc-245), anti-Cyclin E1 (Millipore-Sigma, SAB4503516) and anti-CSN2 (ABclonal, A12749)] were incubated overnight at 4° C. in a rocker. HRP-conjugated secondary antibodies ([…]) were used for 1 h at room temperature. Immunoblots were developed using Clarity ECL (Bio-Rad), detected using a Bio-Rad ChemiDoc MP Image, and quantified using ImageJ.
HC11 cells were fixed using ice-cold MeOH for 10 min. After washing with 1×PBS, cells were incubated for 1 h at room temperature with primary antibodies [anti-γH2AX (SCBT, sc-517348), anti-pATR (Genetex, GTX128145), anti-PLIN2 (generously provided by Jim McManaman)] in a humid incubation chamber. After incubation, cells were washed three times using 1×PBS and incubated for 1 h at room temperature in darkness using corresponding Alexa Fluor AffiniPure secondary antibodies (Jackson ImmunoResearch) and Phalloidin-iFluor 488 Reagent (Abcam, ab176753) when indicated. Cells were washed three times using 1×PBS and incubated with Hoechst 33342 (AnaSpec, AS-83218) for 10 min. Cells were mounted using fluoromount-G (Southern Biotech, 0100-01) and visualized using Zeiss Axio Imager Microscope. Integrated density of PLIN2, nuclear γH2AX and nuclear pATR was quantify using ImageJ.
For RNA isolation from FACS purified populations, mammary gland cell suspensions were blocked using Mouse BD Fc Block™ (BD Biosciences) for 10 min. Cells were subsequently resuspended on 1×PBS at a density of 10^7 cells/ml and stained with the following antibodies for 30 min on ice: anti-CD24 PE (Stem Cell Technologies, 60099PE.1), anti-CD29 PE-Cy7 (BioLegend, 102222), anti-CD45-APC (BioLegend,105826), Ter119-APC (BD Biosciences, 561033), CD31-ACP (BD Biosciences, 551262). Propidium iodide at a final concentration of 0.5 μg/ml was used for the discrimination of dead cells. Stromal, basal and luminal mammary populations were sorted using a BD FACS Aria II Cell Sorter. […]

[2] = test system: HC11 cells; experiment: FACS DNA content analysis of HC11 cells during lactogenic differentiation
Experimental: as §1, §2
For DNA content analysis of the mammary gland CK8^+ epithelial population, mammary gland cells suspension was obtained as described above. Cells were fixed in ice-cold 70% EtOH at a final concentration of 10^6 cells/ml. During fixation, cells were vigorously vortexed for 1 min to avoid the formation of cell aggregates. Cells were washed twice with washing buffer [1×PBS containing 5% FBS and 0.5% tween 20 (Fisher Chemical, BP337500)] and centrifuged at 2,000 rpm for 5 min at 4° C. Cell pellet was incubated for 1 h at room temperature with anti-CK8 (Developmental Studies Hybridoma Lab, TROMA-1), anti-GFP (Thermo Fisher, A01704) or corresponding rat (Thermo-Fisher, 10700) or rabbit (Thermo-Fisher, 10500C) IgG isotype controls. Cells were washed twice and incubated for 1 h at room temperature in darkness with FITC anti-Rat (Thermo Fisher, A24544) or FITC anti-Rabbit (Thermo Fisher, A16030) and APC anti-Rat (Jackson ImmunoResearch, 712-136-153). Cells were washed twice and resuspended in propidium iodide solution [1×PBS containing 25 μg/ml of propidium iodide (Thermo Fisher, P3566) and 100 μg/ml of RNAse (Thermo Fisher, 12091021)]. For DNA content analysis on HC11, cells were washed with 1×DPBS (GIBCO, 14190-250) and harvested using 0.05% Trypsin-EDTA (GIBCO, 25300-062). Cell suspension was washed with 1×DPBS and centrifuged at 1,000 rpm for 5 min at 4° C. Cell pellet was fixed in ice-cold 70% EtOH and then vortexed vigorously to avoid cell aggregates. After fixation, cells were washed with washing buffer [1×PBS (GIBCO, 14190136) supplemented with 5% FBS] and centrifuged at 2,000 rpm for 5 min at 4° C. The pellet was resuspended in propidium iodide solution. Cell suspensions were filtered through a 70 μm cell strainer (Falcon, 08-771-2) and analyzed using a BD LSRII cytometer or a BD FACS Aria II Cell Sorter. Populations were analyzed using FlowJo.

[3] = test system: HC11 cells; experiment: Visualization of FACS-purified HC11 subpopulations sorted on DNA content (nuclei number); conditions: sorted on DNA content 4C or >4C
Experimental: as §2
Mammary gland CK8+ epithelial cells or HC11 were sorted based on DNA content using BD FACS Aria II Cell Sorter. After sorting, cells were stained in suspension using Phalloidin-iFluor 488 Reagent (Abcam, ab176753) for 30 min at room temperature in darkness. Cells were spined down onto microscopy slides (Fisher, 12-550-15) using Cytospin 2 (Shandon, 599X52) at 500 rpm for 3 min. Cells were mounted using fluoromount-G (Southern Biotech, 0100-01) and visualized using Zeiss Axio Imager Microscope.

[4] = Ro-3306 5 μM, differentiated HC11 (DIP3)
[5] = blebbistatin 30 uM, differentiated HC11

For `O=C1NC(=NCc2cccs2)S/C1=C\c1ccc2ncccc2c1` [Ro-3306], the “CSN2 expression, RT-qPCR” value [1, 4] was “increases”, the “CSN2 expression, WB” value [1, 4] was “increases” and the “endoreplication / polyploidy (FACS DNA content)” value ([2]; Ro-3306 5 μM, DIP3) was “undergo further endoreplication, becoming polyploid”. For the same compound, the “mitotic arrest / accumulation of tetraploid cells (FACS DNA content)” value ([2]; undifferentiated HC11 at 80% confluence, Ro-3306 5 μM, 6 hours after treatment) was “efficiently induces mitotic arrest, as detected by the accumulation of tetraploid cells” and the “nuclei number of polyploid cells generated (mono-, bi-, multinucleated)” value ([3]; Ro-3306, differentiated HC11 (DIP3)) was “generates mono-, bi- and multinucleated polyploid cells”.
`Cc1ccc2c(c1)C(=O)C1(O)CCN(c3ccccc3)C1=N2` (centres unmarked) [blebbistatin] was tested, and the “expression of Periplin-2 (PLIN2), ICC” value [1, 5] was “increased expression”, the “expression of β-Casein (Csn2), RT-qPCR” value [1, 5] was “increased expression” and the “formation of milk-containing domes” value [1, 5] was “increase in the formation of milk-containing domes”. For the same compound, the “endoreplication / polyploidy (FACS DNA content)” value ([2]; blebbistatin 30 uM, differentiation day 3 (DIP3)) was “undergo further endoreplication, becoming polyploid”, the “mitotic arrest / proportion of tetraploid cells (FACS DNA content)” value ([2]; undifferentiated HC11 at 80% confluence, blebbistatin 30 uM, 6 hours post-treatment) was “efficiently induces mitotic arrest in HC11 cells, increasing the proportion of tetraploid cells” and the “nuclei number of cells generated (mono-, bi-, multinucleated)” value ([3]; blebbistatin, differentiated HC11 (DIP3)) was “predominantly generates bi- and multinucleated cells”.
